Source: patent publication US11766426B2, “Semi-solid topical composition containing pirfenidone and modified diallyl disulfide oxide (M-DDO) for eliminating or preventing acne” (Excalibur Pharmaceuticals, Inc., priority 2012, dated 2023)

Legend:
Type in all cases: cell-based
[1] = tested on: Propionibacterium acnes; experiment: Antimicrobial action of Pirfenidone and M-DDO gel
Description: (§1) Tables 1, 2, 3 and 4 (shown hereinafter) present the information obtained after conducting microbiological tests, also known as antimicrobial challenge, of M-DDO against various bacteria, showing its powerful anti-bacterial capacity. Moreover, Table 5 (shown hereinafter) presents the results of M-DDO against Propionibacterium acnes.

[2] = tested on: Klebsiella pneumoniae ATCC 10031; experiment: Microbial challenge, ARj.; details: contact time 30 seconds
Description: as §1
(§2) Various antimicrobial challenges have been studied in various institutions in order to evaluate the efficacy of M-DDO [Pirfenidone and M-DDO] against the most frequent microorganisms susceptible to develop resistance and against some microorganisms that may cause grater problem with regard to their eradication because of spore production.
(§3) The initial challenges are conducted with collection microorganisms universally requested for evidencing the efficacy of a product. […] Moreover, results of studies conducted by a company authorized by the authorities to perform challenge studies show results that are similar to the results obtained in the test conducted at UNAM, UAEM and in our laboratory (Grupo Medifarma)(Tables 1, 2 and 3).

[3] = tested on: Candida albicans ATCC 10231; experiment: Microbial challenge, ARj.; details: contact time 30 seconds
Description: as §1, §2, §3

[4] = tested on: collection microorganisms; experiment: Microbial challenge studies at the Universidad Nacional Autónoma de México, summary
Description: as §2, §3

[5] = tested on: microorganisms isolated from hospitalized patients; experiment: Challenges with microorganisms isolated from hospitalized patients, summary; details: 30 second contact
Description: (§4) A second type of challenges were performed at the Universidad Autónoma del Estado de Morelos with microorganisms collected from hospitalized patients and thus said microorganisms had already been in contact with antimicrobial agents and could show resistance (Table 4).

[6] = tested on: Klebsiella pneumoniae ATCC 10031; experiment: Microbial challenge, Grupo Medifarma; details: contact time 30 seconds
Description: as §1, §2, §3

[7] = tested on: Pseudomonas aeruginosa ATCC 9027; experiment: Microbial challenge, Grupo Medifarma; details: contact time 30 seconds
Description: as §1, §2, §3

[8] = tested on: Proteus vulgaris ATCC 6380; experiment: Microbial challenge, Grupo Medifarma; details: contact time 30 seconds
Description: as §1, §2, §3

[9] = tested on: Staphylococcus epidermidis ATCC 12228; experiment: Microbial challenge, Grupo Medifarma; details: contact time 30 seconds
Description: as §1, §2, §3

[10] = tested on: Candida albicans ATCC 10231; experiment: Microbial challenge, Grupo Medifarma; details: contact time 30 seconds
Description: as §1, §2, §3

[11] = tested on: Escherichia coli ATCC 11229; experiment: Microbial challenge, Grupo Medifarma; details: contact time 30 seconds
Description: as §1, §2, §3

[12] = tested on: Escherichia coli ATCC 10536; experiment: Microbial challenge, Grupo Medifarma; details: contact time 30 seconds
Description: as §1, §2, §3

[13] = tested on: Staphylococcus aureus ATCC 6538; experiment: Microbial challenge, Grupo Medifarma; details: contact time 30 seconds
Description: as §1, §2, §3

[14] = tested on: Salmonella typhi CA-C001; experiment: Microbial challenge, UNAM; details: contact time 30 seconds
Description: as §1, §2, §3

[15] = tested on: Enterobacter cloacae; experiment: Challenge with microorganisms collected from hospitalized patients, Universidad Autónoma del Estado de Morelos; details: contact time 30 seconds; isolate from hospitalized patients; UAEM
Description: as §1, §4

[16] = tested on: Enterobacter faecalis; experiment: as above; details: contact time 30 seconds; isolate from hospitalized patients; UAEM
Description: as §1, §4

[17] = tested on: Escherichia coli; experiment: as above; details: contact time 30 seconds; isolate from hospitalized patients; UAEM
Description: as §1, §4

[18] = tested on: Staphylococcus aureus; experiment: as above; details: contact time 30 seconds; isolate from hospitalized patients; UAEM
Description: as §1, §4

[19] = tested on: Salmonella typhi; experiment: as above; details: contact time 30 seconds; isolate from hospitalized patients; UAEM
Description: as §1, §4

[20] = tested on: Salmonella enteritidis; experiment: as above; details: contact time 30 seconds; isolate from hospitalized patients; UAEM
Description: as §1, §4

[21] = tested on: Serratia marcenses; experiment: as above; details: contact time 30 seconds; isolate from hospitalized patients; UAEM
Description: as §1, §4

[1,2-diallyl-1-(5-methyl-tetrahydro-2H-pyran-2-yloxy)disulfonium]+6-[(benzyl, methyl, octylammonium) (hydroxymethylamin)(methylamin)]-tetrahydro-2H-pyran-3-oxy] chloride [M-DDO]
Percentage of reduction of bacteria viability (%) ([1]; exposition time 30 sec): 99.999% | Percentage of reduction of bacteria viability (%) ([1]; exposition time 60 sec): 99.999% | Percentage of reduction of bacteria viability (%) ([1]; exposition time 15 min): 100% | elimination of the microbial charge [2]: 100% | elimination of the microbial charge [3]: 100% | elimination of the microbial charge [4]: 99.999% | reduction of the microbial charge [5]: at least 99.17% | elimination of microorganisms [6]: 100% | elimination of microorganisms [7]: 100% | elimination of microorganisms [8]: 100% | elimination of microorganisms [9]: 100% | elimination of microorganisms [10]: 100% | elimination of microorganisms [11]: 100% | elimination of microorganisms [12]: 100% | elimination of microorganisms [13]: 100% | elimination of the microbial charge [14]: 99.999% | reduction of the microbial charge [15]: 100% | reduction of the microbial charge [16]: 99.972% | reduction of the microbial charge [17]: 99.961% | reduction of the microbial charge [18]: 99.999% | reduction of the microbial charge [19]: 99.170% | reduction of the microbial charge [20]: 100% | reduction of the microbial charge [21]: 100%
